This is an account of results in ChEMBL document CHEMBL1201862, “PubChem BioAssay data set” (2004).

Assay in all cases: NCI anticancer screen, dose series, 48 h
The test system of assay [1] is 786-0.
The subject of assay [2] is DMS-273.
The subject of assay [3] is LXFL 529.
Assay [4] relates to SNB-78.
In assay [5] the test system is RXF 631.
Assay [6] concerns DLD-1.
The test system of assay [7] is XF498.
For assay [8], the system named is M19-MEL.
In assay [9] the test system is HOP-18.

Molecules are shown by their SMILES.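 Briefly, cells in 96-well plates were exposed to five compound concentrations for 48 h, and endpoints were estimated by linear interpolation. The concentration for 50% growth inhibition is given as GI50.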 Calls of active or inactive are those of the source. Cut-off read from the data, not from the text of the source: active = GI50 up to about 1.1 µM and inactive = higher.

Regarding `COC(=O)c1ccccc1CC(Cc1ccccc1)C(=O)OC` (centres undefined), the GI50 in assay [1] was 71.3 µM (inactive).

Consider `COC1(OC)c2no[n+]([O-])c2CCC1O` (centres undefined), for which the GI50 in [1] was > 100 µM (inactive).

With `CCCCNC(=O)c1cc(S(=O)(=O)n2ccnc2O)c(SC)cc1Cl`, the GI50 in assay [1] is > 100 µM (inactive).

`COC(=O)CN(C)P(=O)(N1CC1)N1CC1`: the GI50 in [2], in assay [3], in [4], in assay [5] and in assay [6] was > 100 µM (inactive) throughout.

`CCN(CC)/[N+]([O-])=N/O`: the GI50 in assay [2] was > 100 µM (inactive); in assay [7], 18.9 µM (inactive); in [3], > 100 µM (inactive); in [4], > 100 µM (inactive); in assay [5] it was > 100 µM (inactive); in assay [8], > 100 µM (inactive).

As for `CSC1SCC2C(=O)N(C)C(C(C)C)C(=O)OCC(NC(=O)c3cnc4ccccc4n3)C(=O)NC(C)C(=O)N(C)C1C(=O)N(C)C(C(C)C)C(=O)OCC(NC(=O)c1cnc3ccccc3n1)C(=O)NC(C)C(=O)N2C` (centres undefined), the GI50 in [2], in assay [4], in assay [9] and in assay [6] was 0.0075 µM (active) each time.

In the case of `CCNC(=S)NNC(=O)c1nsc2ccccc12`, the GI50 in assay [2] is 97.5 µM (inactive); in assay [3], 53.3 µM (inactive); in assay [4], > 100 µM (inactive); in [9], 23.1 µM (inactive); in assay [8], 97.3 µM (inactive).

`CN(C)C(=O)Oc1c(Br)cc(Br)cc1C(=O)OCc1ccccc1`: the GI50 in assay [2] is 17.3 µM (inactive); in assay [7] it was 19.3 µM (inactive); in assay [4], 33.1 µM (inactive); in [9], 33.2 µM (inactive); in assay [6], 25.4 µM (inactive); in [8], 20 µM (inactive).

`COc1ccc(/C=C2\CCC/C(=C\c3ccc(O)c(CN4CCCCC4)c3)C2=O)cc1`: the GI50 in [1] is 4.17 µM (inactive).

As to `COc1ccc(/N=C\c2ccc(N(CCC#N)S(=O)(=O)c3ccccc3)cc2C)cc1`, the GI50 in assay [7] was > 100 µM (inactive); in [3], 8.99 µM (inactive); in [4] it was 79.1 µM (inactive); in assay [5], 59.8 µM (inactive); in [9], > 100 µM (inactive); in assay [8] it was 41.7 µM (inactive).

In the case of `O=C(Nc1ccc([N+](=O)[O-])cc1)C(=O)C(C(=O)c1ccccc1F)C1OC(=O)c2ccccc21` (centres undefined), the GI50 in [2] is 23.8 µM (inactive); in [7], 70.3 µM (inactive); in assay [3], 33.7 µM (inactive); in assay [4], 5.65 µM (inactive); in assay [5] it was 26 µM (inactive); in assay [6], 40.6 µM (inactive). Moreover, the GI50 in [8] is 28.1 µM (inactive).

Take `CC(=O)c1ccccc1NP(=O)(c1ccccc1)c1ccccc1`: in assay [1], the GI50 was > 100 µM (inactive).
